Drawing on US8183262B2, “Pyridine derivatives as mGluR2 antagonists” (Hoffmann-La Roche Inc., priority 2007, dated 2012), this text covers Ki and melting point for 23 compounds.

One data set concerns the target T1, rat mGlu2 receptor (Rattus norvegicus, UniProt P31421).
T1 construct: expressed in transfected cells; membranes prepared
Briefly: [3H]-LY354740 binding on mGlu2 transfected CHO cell membranes. As to conditions: inhibition of 10 nM [3H]-LY354740 binding, membranes of CHO cells transfected with rat mGlu2, room temperature, 1 hour. An excerpt:
[^3H]-LY354740 Binding on mGlu2 Transfected CHO Cell Membranes. Transfection and Cell Culture
cDNA encoding the rat mGlu2 receptor protein in pBluescript II was subcloned into the eukaryotic expression vector pcDNA I-amp from Invitrogen Ltd (Paisley, UK). This vector construct (pcD1mGR2) was co-transfected with a psvNeo plasmid encoding the gene for neomycin resistance, into CHO cells by a modified calcium phosphate method described by Chen & Okayama (1988). The cells were maintained in Dulbecco's Modified Eagle medium with reduced L-glutamine (1 mM final concentration), 36 mg/L L-Proline and 10% dialysed foetal calf serum from Gibco-Invitrogen; the medium was supplemented with 500 microM α-methyl-4-carboxyphenylglycine (MCPG). Selection was made in the presence of G-418 (300 ug/ml final concentration). Clones were identified by reverse transcription of 5 μg total RNA, followed by PCR using mGlu2 receptor specific primers 5′-[…]-3′ and 5′-[…]-3′ in 60 mM Tris HCl (pH 10), 15 mM (NH4)2SO4, 2 mM MgCl2, 25 units/ml Taq Polymerase with 30 cycles annealing at 60° C. for 1 min., extention at 72° C. for 30 s, and 1 min. 95° C. denaturation.
Cells, cultured as above, were harvested and washed three times with cold PBS and frozen at −80° C. The pellet was resuspended in cold 20 mM HEPES-NaOH buffer containing 10 mM EDTA (pH 7.4), and homogenised with a polytron (Kinematica, A G, Littau, Switzerland) for 10 s at 10 000 rpm. After centrifugation for 30 min. at 4° C., the pellet was washed once with cold 20 mM HEPES-NaOH buffer containing 0.1 mM EDTA, (pH 7.4). After a second centrifugation for 30 min. at 4° C. the pellet was resuspended in cold 20 mM HEPES-NaOH buffer containing 0.1 mM EDTA, (pH 7.4). Protein content was measured using the Micro BCA method from Pierce-Perbio (Rockford, Ill., USA) using bovine serum albumin as standard.
After thawing, the membranes were resuspended in cold 50 mM Tris-HCl buffer containing 2 mM MgCl2 (pH 7.4) (binding buffer). The final concentration of the membranes in the assays was 25 μg protein/ml. Inhibition experiments were performed with membranes incubated with 10 nM [^3H]-LY354740 at room temperature, for 1 hour, in presence of various concentrations of the compound to be tested. Following the incubations, membranes were filtered onto Whatmann GF/B glass fiber filters or onto GF/B Unifilter plates and washed 5 times with cold binding buffer. Non specific binding was measured in the presence of 10 μM (2S,2′R,3′R)-2-(2′3′-Dicarboxycyclopropyl)glycine (DCG IV from Tocris, Ellisville, Mo. USA). After transfer of the filters into plastic vials containing 10 ml of Ultima-gold scintillation fluid from Perkin-Elmer (Boston, Mass., USA), the radioactivity was measured by liquid scintillation in a Tri-Carb 2500 TR counter (Packard, Zürich, Switzerland). For 96-Unifilter plates the radioactivity was measured after addition of Microscint 40 scintillation fluid (Perkin Elmer, Boston Mass.) using a TopCount NXT (Packard)
The inhibition curves were fitted with a four parameter logistic equation giving IC50 values, and Hill coefficients.

T1 sequence (P31421 19-872): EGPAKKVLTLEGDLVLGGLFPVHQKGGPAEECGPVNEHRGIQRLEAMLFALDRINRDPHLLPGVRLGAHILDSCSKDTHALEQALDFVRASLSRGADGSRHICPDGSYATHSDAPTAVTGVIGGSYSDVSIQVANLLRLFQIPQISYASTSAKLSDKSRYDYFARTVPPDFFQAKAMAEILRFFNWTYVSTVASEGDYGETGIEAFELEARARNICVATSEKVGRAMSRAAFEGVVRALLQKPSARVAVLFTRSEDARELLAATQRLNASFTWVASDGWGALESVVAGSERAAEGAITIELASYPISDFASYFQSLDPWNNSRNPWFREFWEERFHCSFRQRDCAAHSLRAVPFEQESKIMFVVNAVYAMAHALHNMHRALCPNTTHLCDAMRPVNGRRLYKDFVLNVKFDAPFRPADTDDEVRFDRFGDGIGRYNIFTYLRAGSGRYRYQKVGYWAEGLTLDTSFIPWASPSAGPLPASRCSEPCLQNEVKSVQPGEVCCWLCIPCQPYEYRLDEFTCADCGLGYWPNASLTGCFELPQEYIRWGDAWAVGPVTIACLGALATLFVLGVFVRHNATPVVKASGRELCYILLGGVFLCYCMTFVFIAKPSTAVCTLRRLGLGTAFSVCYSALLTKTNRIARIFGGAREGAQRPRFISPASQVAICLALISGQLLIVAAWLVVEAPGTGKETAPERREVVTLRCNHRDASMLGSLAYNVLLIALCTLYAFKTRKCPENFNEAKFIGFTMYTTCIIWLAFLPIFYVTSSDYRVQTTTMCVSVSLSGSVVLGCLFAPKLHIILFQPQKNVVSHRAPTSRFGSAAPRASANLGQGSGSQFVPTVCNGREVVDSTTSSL

For the compound `Nc1ncc(-c2cn(-c3nc(-c4cccc(Cl)c4)cc(C(F)(F)F)n3)cn2)cn1` [Example 187, 5-{1-[4-(3-Chloro-phenyl)-6-trifluoromethyl-pyrimidin-2-yl]-1H-imidazol-4-yl}-pyrimidin-2-ylamine], the melting point (commonly the temperature, or range, at which the solid turns liquid) was 281 °C. In addition, the Ki (commonly a dissociation constant, usually derived from enzyme kinetics or from competition with a known ligand) at rat mGlu2 receptor was 13.7 nM.
In the case of `NS(=O)(=O)c1cccc(-c2cccc(-c3nc(-c4ccc(F)cc4)cc(C(F)(F)F)n3)c2)c1` [Example 394, 3′-[4-(4-Fluoro-phenyl)-6-trifluoromethyl-pyrimidin-2-yl]-biphenyl-3-sulfonic acid amide], the melting point is 208 °C. At rat mGlu2 receptor, this compound yielded a Ki of 3 nM.
In the case of `NS(=O)(=O)c1cccc(-c2cccc(-c3cc(-c4ccc(C(F)(F)F)cc4)cc(C(F)(F)F)n3)c2)c1` [Example 244, 3′-[6-Trifluoromethyl-4-(4-trifluoromethyl-phenyl)-pyridin-2-yl]-biphenyl-3-sulfonic acid amide], the melting point amounted to 187 °C. In addition, the Ki at rat mGlu2 receptor came to 5 nM.
`CN(C)S(=O)(=O)Nc1cccc(-c2cccc(-c3nc(-c4ccc(C(F)(F)F)cc4)cc(C(F)(F)F)n3)c2)c1` [Example 222, N-{3′-[4-Trifluoromethyl-6-(4-trifluoromethyl-phenyl)-pyrimidin-2-yl]-biphenyl-3-yl}-N′,N′-dimethyl-sulfamide]: the melting point was 113 °C. Also, on rat mGlu2 receptor, the affinity corresponds to a Ki of 12.4 nM.
Compound `Cc1cc(-c2ccc(C(F)(F)F)cc2)cc(-c2ccnc(-c3cccc(NS(C)(=O)=O)c3)c2)n1` [Example 318, N-{3-[6-Methyl-4-(4-trifluoromethyl-phenyl)-[2,4′]bipyridinyl-2′-yl]-phenyl}-methanesulfonamide] came in with a melting point of 196 °C. At rat mGlu2 receptor, the affinity, expressed as Ki, was 4 nM.
Take `Cc1cc(-c2ccc(C(F)(F)F)cc2)cc(-c2nc(-c3cccc(S(N)(=O)=O)c3)no2)n1` [Example 237, 3-{5-[6-Methyl-4-(4-trifluoromethyl-phenyl)-pyridin-2-yl]-[1,2,4]oxadiazol-3-yl}-benzenesulfonamide]: the melting point was found to be 277 °C. At rat mGlu2 receptor, this compound showed a Ki of 4 nM.
As for `NS(=O)(=O)Nc1cccc(-c2cccc(-c3nc(-c4ccc(C(F)(F)F)cc4)cc(C(F)(F)F)n3)c2)c1` [Example 221, N-{3′-[4-Trifluoromethyl-6-(4-trifluoromethyl-phenyl)-pyrimidin-2-yl]-biphenyl-3-yl}-sulfamide], the melting point turned out to be 174 °C. The compound further had an inhibitory constant (Ki) at rat mGlu2 receptor of 7 nM.
For the compound `Cc1cc(-c2cccc(-c3nc(-c4ccc(C(F)(F)F)cc4)cc(C(F)(F)F)n3)c2)cc(C)n1` [Example 42, 2-[3-(2,6-Dimethyl-pyridin-4-yl)-phenyl]-4-trifluoromethyl-6-(4-trifluoromethyl-phenyl)-pyrimidine], the melting point worked out at 159 °C. Also, on rat mGlu2 receptor, affinity was put at a Ki of 140 nM.
As to `Cc1cc(-c2ccc(C(F)(F)F)cc2)cc(-n2ccnc2)n1` [Example 55, 2-Imidazol-1-yl-6-methyl-4-(4-trifluoromethyl-phenyl)-pyridine], the melting point was in the range of 158 to 160 °C. This compound displayed an inhibitory constant (Ki) at rat mGlu2 receptor of 96 nM.
The corresponding values for `FC(F)(F)c1cc(-c2ccc(Cl)cc2)nc(-n2ccnc2)n1` [Example 1, 4-(4-Chloro-phenyl)-2-imidazol-1-yl-6-trifluoromethyl-pyrimidine] are 175 °C and 74 nM.
The corresponding values for `NS(=O)(=O)c1cccc(-c2nc(-c3nc(-c4ccc(C(F)(F)F)cc4)cc(C(F)(F)F)n3)no2)c1` [Example 10, 3-{3-[4-Trifluoromethyl-6-(4-trifluoromethyl-phenyl)-pyrimidin-2-yl]-[1,2,4]oxadiazol-5-yl}-benzenesulfonamide] are 205 °C and 25 nM.
For `Cc1cc(-c2ccc(C(F)(F)F)cc2)cc(-c2cccc(C#N)c2)n1` [Example 242, 3-[6-Methyl-4-(4-trifluoromethyl-phenyl)-pyridin-2-yl]-benzonitrile], the melting point came to 140 °C. This compound showed a Ki on rat mGlu2 receptor of 42 nM.
Compound `Cc1cc(-c2ccc(C(F)(F)F)cc2)cc(-c2cccc(-c3ccc(N)nc3)c2)n1` [Example 62, 5-{3-[6-Methyl-4-(4-trifluoromethyl-phenyl)-pyridin-2-yl]-phenyl}-pyridin-2-ylamine] gave a melting point of 68 to 90 °C. This compound registered a Ki at rat mGlu2 receptor of 3 nM.
The corresponding values for `Cc1nc(-c2cn(-c3cc(C(F)(F)F)cc(-c4ccc(C(F)(F)F)cc4)n3)cn2)sc1S(N)(=O)=O` [Example 294, 4-Methyl-2-{1-[4-trifluoromethyl-6-(4-trifluoromethyl-phenyl)-pyridin-2-yl]-1H-imidazol-4-yl}-thiazole-5-sulfonic acid amide] are 187 °C (dec.) and 13 nM.
Compound `Nc1ccc(-c2cn(-c3cc(-c4ccc(C(F)(F)F)cc4)cc(C4CC4)n3)cn2)cn1` [Example 54, 5-{1-[6-Cyclopropyl-4-(4-trifluoromethyl-phenyl)-pyridin-2-yl]-1H-imidazol-4-yl}-pyridin-2-ylamine] returned a melting point of 233 to 235 °C. Moreover, the Ki at rat mGlu2 receptor worked out at 60 nM.
`Cc1cc(-c2ccc(C(F)(F)F)cc2)cc(-c2ccnc(-c3cccc(S(=O)(=O)N4CCOCC4)c3)c2)n1` [Example 346, 6-Methyl-2′-[3-(morpholine-4-sulfonyl)-phenyl]-4-(4-trifluoromethyl-phenyl)-[2,4′]bipyridinyl] came in with a melting point of 115 °C. The Ki on rat mGlu2 receptor is 4 nM.
`NS(=O)(=O)c1cccc(-c2nc(-c3nc(-c4ccc(Cl)cc4)cc(C(F)(F)F)n3)no2)c1` [Example 2, 3-{3-[4-(4-Chloro-phenyl)-6-trifluoromethyl-pyrimidin-2-yl]-[1,2,4]oxadiazol-5-yl}-benzenesulfonamide]: the melting point is 273 °C. At rat mGlu2 receptor, the Ki was found to be 28 nM.
`NS(=O)(=O)c1cccc(-c2noc(-c3cc(C(F)(F)F)cc(-c4ccc(C(F)(F)F)cc4)n3)n2)c1` [Example 243, 3-{5-[4-Trifluoromethyl-6-(4-trifluoromethyl-phenyl)-pyridin-2-yl]-[1,2,4]oxadiazol-3-yl}-benzenesulfonamide] came in with a melting point of 211 °C. Moreover, the affinity at rat mGlu2 receptor corresponds to a Ki of 3 nM.
Compound `Cc1cc(-c2ccc(C(F)(F)F)cc2)cc(-c2cccc(-c3ccc(S(N)(=O)=O)cc3)n2)n1` [Example 73, 4-[6′-Methyl-4′-(4-trifluoromethyl-phenyl)-[2,2′]bipyridinyl-6-yl]-benzenesulfonamide] registered a melting point of 215 to 227 °C. Further, at rat mGlu2 receptor, the Ki worked out at 19 nM.
In turn, `Nc1ccc(-c2cc(-c3cc(C(F)(F)F)cc(-c4ccc(C(F)(F)F)cc4)n3)ccn2)cn1` [Example 74, 4-Trifluoromethyl-6-(4-trifluoromethyl-phenyl)-[2,4′;2′,3″]terpyridin-6″-ylamine] came in with a melting point of 194 to 196 °C. Also, affinity at rat mGlu2 receptor was put at a Ki of 10 nM.
The like results for `CS(=O)(=O)Nc1cccc(-c2cccc(-c3nc(-c4ccc(C(F)(F)F)cc4)cc(C(F)(F)F)n3)c2)c1` [Example 223, N-{3′-[4-Trifluoromethyl-6-(4-trifluoromethyl-phenyl)-pyrimidin-2-yl]-biphenyl-3-yl}-methanesulfonamide] were, in that order, 191 °C and 13 nM.
The compound `FC(F)(F)c1ccc(-c2cc(C(F)(F)F)nc(-n3ccnc3)n2)cc1` [Example 3, 2-Imidazol-1-yl-4-trifluoromethyl-6-(4-trifluoromethyl-phenyl)-pyrimidine] had a melting point of 162 °C. The Ki on rat mGlu2 receptor was found to be 72 nM.
For `Cc1cc(-c2ccc(C(F)(F)F)cc2)nc(-c2ccnc(-c3ccc(S(=O)(=O)NC(C)(C)C)s3)c2)c1` [Example 320, 5-[4-Methyl-6-(4-trifluoromethyl-phenyl)-[2,4′]bipyridinyl-2′-yl]-thiophene-2-sulfonic acid tert-butylamide], the melting point stood at 209 °C. This compound also came in with a Ki on rat mGlu2 receptor of 16 nM.
